Results from patent US20220324835A1 (Nurix Therapeutics, Inc., priority 2018, published 2022).

Legend:
primary human B cells = assay: B cell activation assay (CD69 on anti-IgM stimulated B cells); assay type: cell-based; conditions: AUC of dose response curve (10 μM to 1 nM) of CD69 MFI normalized to DMSO control
Method in brief: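 Negatively selected PBMC-derived B cells (>95% CD20+) treated with Cbl-b inhibitors from 10 μM to 1 nM (DMSO <0.5%) and stimulated with anti-IgM for 20 h at 37° C. CD69 MFI on CD20+ IgD+ cells by flow cytometry; dose-response AUC normalized to DMSO plus 2.5 μg/mL anti-IgM-F(ab′)2, binned A-D.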

Cbl-b (residues 36-427) = Cbl-b (residues 36-427) (Homo sapiens, UniProt Q13191); assay: Cbl-b binding assay (SPR, Biacore T200); conditions: 20° C., 1:1 binding model
Chain of Cbl-b (residues 36-427) (Q13191 36-427): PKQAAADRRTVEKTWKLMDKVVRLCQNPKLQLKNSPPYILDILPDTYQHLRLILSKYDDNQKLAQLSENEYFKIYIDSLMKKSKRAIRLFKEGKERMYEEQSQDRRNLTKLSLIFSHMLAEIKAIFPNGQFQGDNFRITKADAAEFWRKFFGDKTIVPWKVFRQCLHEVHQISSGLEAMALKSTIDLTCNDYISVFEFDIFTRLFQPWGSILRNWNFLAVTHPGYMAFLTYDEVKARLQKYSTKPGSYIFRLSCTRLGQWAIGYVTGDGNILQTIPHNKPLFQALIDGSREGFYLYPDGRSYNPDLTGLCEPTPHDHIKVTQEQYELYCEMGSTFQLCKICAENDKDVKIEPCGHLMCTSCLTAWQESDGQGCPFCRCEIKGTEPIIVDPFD
Method in brief: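 Steps: capture protein on NeutrAvidin surface; inject compound dilutions (8 or 10 points from 100 or 50 μM) 50 s; allow 90-180 s dissociation; regenerate 20 s with 0.3 M NaCl. Runs at 20° C in HEPES pH 7.5/100 mM NaCl/2% DMSO; 1:1 fitting.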

T-cell [1] = assay: CD25 cell surface staining on T-cells co-stimulated with anti-CD3 and anti-CD28 antibody (Biological Example 2); assay type: cell-based, human; conditions: Homo sapiens, T-cell, primary human total T-cells, baseline = anti-CD3/anti-CD28 stimulated cells without inhibitor, read-out: CD25 staining, Anti-CD3/Anti-CD28 stimulation, fold change over baseline; for fold induction at 0.3 µM: 0.3 μM compound; for fold induction at 1 µM: 1 μM compound; for fold induction at 4 µM: 4 μM compound
Method in brief: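 T-cells were stimulated with anti-CD3 antibody alone or with anti-CD28 antibody, in the presence or absence of Cbl-b inhibitor. IL-2 secretion or CD25 surface staining was measured, and values expressed as fold over the uninhibited baseline […].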

[2] = test system: human T-cells with allogenic immature dendritic cells; assay: Allogenic mixed lymphocyte reaction (MLR), T-cell proliferation; assay type: cell-based; conditions: 120 h, 5 days, baseline T-cells without Cbl-b inhibitor, read-out: Proliferation, fold change over baseline
Protocol: Cbl-b inhibitor effects on primary human T-cells were also evaluated in the context of an allogenic mixed lymphocyte reaction (MLR). Allogenic immature dendritic cells were generated under the following conditions. Peripheral blood mononuclear cells (PBMC) were obtained either: 1) by using Ficoll-Paque™ (GE Healthcare) for separation of peripheral blood hematopoietic cells from huffy coats of healthy human donors; or 2) directly from LeukoPak donations. […] Monocytes were cultured with 30 ng/mL of recombinant human GM-CSF and 20 ng/mL of recombinant human IL-4 for seven days to generate immature dendritic cells. Monocytes and T-cells were either isolated fresh from peripheral blood or thawed from frozen stocks. Human T-cells were isolated, labeled with CFSE and incubated with inhibitors as described above. […] Proliferation of the T-cells was evaluated by flow cytometry.
Readouts for the allogenic mixed lymphocyte reaction were reported as fold change over baseline. Baseline for this study was the measurement obtained from total human T-cells stimulated with allogenic immature dendritic cells, wherein the T-cells were not incubated with a Cbl-b inhibitor (Table 5). Increases in proliferation greater than 2-fold over baseline were considered a positive response (Table 5).

T-cell [3] = assay: IL-2 secretion from T-cells stimulated with anti-CD3 antibody alone (Biological Example 2); assay type: cell-based; conditions: primary human total T-cells, read-out: IL-2 secretion, Anti-CD3 stimulation, fold change over baseline; for fold induction at 1 µM: 1 μM compound; for fold induction at 8 µM: 8 μM compound

Cc1n[nH]c(C)c1-c1cc2c(c(C(F)(F)F)c1)CN(c1cccc(C3(Cc4nncn4C)COC3)c1)C2=O [Compound 385, 6-(3,5-dimethyl-1H-pyrazol-4-yl)-2-(3-{3-[(4-methyl-4H-1,2,4-triazol-3-yl)methyl]oxetan-3-yl}phenyl)-4-(trifluoromethyl)-2,3-dihydro-1H-isoindol-1-one]
CD69 MFI AUC (primary human B cells): C (C indicates 1.01-1.50) | Kd (Cbl-b (residues 36-427)): < 100 nM | fold induction at 0.3 µM (T-cell [1]): 1.01 to 1.3 | fold induction at 1 µM (T-cell [1]): 1.01 to 1.3 | fold induction at 4 µM (T-cell [1]): 1.31 to 1.5 | fold induction at 3 µM [2]: < 2 | fold induction at 10 µM [2]: < 2 | fold induction at 1 µM (T-cell [3]): 0.101 to 0.15 | fold induction at 8 µM (T-cell [3]): > 0.201

C[C@H](Cc1nncn1C)c1cccc(N2Cc3c(cc(CN4CC(C)(O)C4)cc3C(F)(F)F)C2=O)c1 [Compound 397]
CD69 MFI AUC (primary human B cells): B (B indicates 0.5-1.00) | Kd (Cbl-b (residues 36-427)): < 100 nM | fold induction at 0.3 µM (T-cell [1]): 1.01 to 1.3 | fold induction at 1 µM (T-cell [1]): 1.31 to 1.5 | fold induction at 4 µM (T-cell [1]): 1.31 to 1.5 | fold induction at 3 µM [2]: < 2 | fold induction at 10 µM [2]: 2.01 to 3 | fold induction at 1 µM (T-cell [3]): 0.151 to 0.2 | fold induction at 8 µM (T-cell [3]): > 0.201

C[C@H](Cc1nncn1C)c1cccc(N2Cc3c(cc(CN4CC[C@](C)(O)C4)cc3C(F)(F)F)C2=O)c1 [Compound 398, 6-(((S)-3-hydroxy-3-methylpyrrolidin-1-yl)methyl)-2-(3-((R)-1-(4-methyl-4H-1,2,4-triazol-3-yl)propan-2-yl)phenyl)-4-(trifluoromethyl)isoindolin-1-one]
CD69 MFI AUC (primary human B cells): B (B indicates 0.5-1.00) | Kd (Cbl-b (residues 36-427)): < 100 nM | fold induction at 0.3 µM (T-cell [1]): 1.01 to 1.3 | fold induction at 1 µM (T-cell [1]): 1.31 to 1.5 | fold induction at 4 µM (T-cell [1]): 1.31 to 1.5 | fold induction at 3 µM [2]: 2.01 to 3 | fold induction at 10 µM [2]: 2.01 to 3 | fold induction at 1 µM (T-cell [3]): 0.101 to 0.15 | fold induction at 8 µM (T-cell [3]): > 0.201

C[C@H](Cc1nncn1C)c1cccc(NC(=O)c2cc3cc(N4CCNCC4)ccc3cn2)c1 [Compound 472, N-{3-[(2R)-1-(4-methyl-4H-1,2,4-triazol-3-yl)propan-2-yl]phenyl}-6-(piperazin-1-yl)isoquinoline-3-carboxamide]
CD69 MFI AUC (primary human B cells): C (C indicates 1.01-1.50) | Kd (Cbl-b (residues 36-427)): < 100 nM | fold induction at 0.3 µM (T-cell [1]): 1.01 to 1.3 | fold induction at 1 µM (T-cell [1]): 1.01 to 1.3 | fold induction at 4 µM (T-cell [1]): 1.01 to 1.3 | fold induction at 3 µM [2]: < 2 | fold induction at 10 µM [2]: < 2 | fold induction at 1 µM (T-cell [3]): 0.101 to 0.15 | fold induction at 8 µM (T-cell [3]): 0.101 to 0.15

C[C@H](Cc1nncn1C)c1cccc(N2Cc3c(cc(CN4CC[C@H](F)C4)cc3C(F)(F)F)C2=O)c1 [Compound 399, 6-(((S)-3-fluoropyrrolidin-1-yl)methyl)-2-(3-((R)-1-(4-methyl-4H-1,2,4-triazol-3-yl)propan-2-yl)phenyl)-4-(trifluoromethyl)isoindolin-1-one]
CD69 MFI AUC (primary human B cells): C (C indicates 1.01-1.50) | Kd (Cbl-b (residues 36-427)): < 100 nM | fold induction at 0.3 µM (T-cell [1]): 1.01 to 1.3 | fold induction at 1 µM (T-cell [1]): 1.31 to 1.5 | fold induction at 4 µM (T-cell [1]): 1.31 to 1.5 | fold induction at 3 µM [2]: 2.01 to 3 | fold induction at 10 µM [2]: > 3.01 | fold induction at 1 µM (T-cell [3]): 0.151 to 0.2 | fold induction at 8 µM (T-cell [3]): > 0.201

Cn1cnnc1C(F)(F)[C@](C)(F)c1cccc(N2Cc3c(cc(CN4CC[C@@H](F)C4)cc3C(F)(F)F)C2=O)c1 [Compound 450]
CD69 MFI AUC (primary human B cells): C (C indicates 1.01-1.50) | Kd (Cbl-b (residues 36-427)): < 100 nM | fold induction at 0.3 µM (T-cell [1]): 1.31 to 1.5 | fold induction at 1 µM (T-cell [1]): 1.51 to 1.75 | fold induction at 4 µM (T-cell [1]): 1.51 to 1.75 | fold induction at 3 µM [2]: < 2 | fold induction at 10 µM [2]: 2.01 to 3 | fold induction at 1 µM (T-cell [3]): > 0.201 | fold induction at 8 µM (T-cell [3]): > 0.201
